Columns and labels:
rats = assay: Object recognition test (memory test); format: in vivo; conditions: rat, dose of 1.0 mg/kg of body weight p.o., 24 hours interval
Method: The object recognition test is a memory test. It measures the ability of rats (and mice) to differentiate between known and unknown objects and is therefore suitable for the determination of the memory-improving action of the compounds according to the invention.
The test is carried out as described (Blokland et al. NeuroReport 1998, 9, 4205-4208; Ennaceur, A., Delacour, J., Behav. Brain Res. 1988, 31, 47-59; Ennaceur, A., Meliani, K., Psychopharmacology 1992, 109, 321-330; Prickaerts, et al. Eur. J. Pharmacol. 1997, 337, 125-136).
In a first passage, a rat in an otherwise empty relatively large observation arena is confronted with two identical objects. The rat will extensively examine, i.e. sniff and touch, both objects. In a second passage, after an interval of 24 hours, the rat is again tested in the observation arena. One of the known objects is now replaced by a new, unknown object. When a rat recognizes the known object, it will especially examine the unknown object. After 24 hours, a rat, however, has normally forgotten which object it has already examined in the first passage, and will therefore inspect both objects equally intensively. The administration of a substance having learning- and memory-improving action will lead to a rat recognizing the object already seen 24 hours beforehand, in the first passage, as known. […]

PDE 2 = molecular target: T1, PDE 2 (UniProt P14099); assay: Measurement of the PDE inhibition (PDE 2, [3H]-cAMP substrate, cGMP prestimulation); format: biochemical, porcine or bovine; conditions: cGMP-stimulated PDE 2
T1 sequence (P14099 1-921): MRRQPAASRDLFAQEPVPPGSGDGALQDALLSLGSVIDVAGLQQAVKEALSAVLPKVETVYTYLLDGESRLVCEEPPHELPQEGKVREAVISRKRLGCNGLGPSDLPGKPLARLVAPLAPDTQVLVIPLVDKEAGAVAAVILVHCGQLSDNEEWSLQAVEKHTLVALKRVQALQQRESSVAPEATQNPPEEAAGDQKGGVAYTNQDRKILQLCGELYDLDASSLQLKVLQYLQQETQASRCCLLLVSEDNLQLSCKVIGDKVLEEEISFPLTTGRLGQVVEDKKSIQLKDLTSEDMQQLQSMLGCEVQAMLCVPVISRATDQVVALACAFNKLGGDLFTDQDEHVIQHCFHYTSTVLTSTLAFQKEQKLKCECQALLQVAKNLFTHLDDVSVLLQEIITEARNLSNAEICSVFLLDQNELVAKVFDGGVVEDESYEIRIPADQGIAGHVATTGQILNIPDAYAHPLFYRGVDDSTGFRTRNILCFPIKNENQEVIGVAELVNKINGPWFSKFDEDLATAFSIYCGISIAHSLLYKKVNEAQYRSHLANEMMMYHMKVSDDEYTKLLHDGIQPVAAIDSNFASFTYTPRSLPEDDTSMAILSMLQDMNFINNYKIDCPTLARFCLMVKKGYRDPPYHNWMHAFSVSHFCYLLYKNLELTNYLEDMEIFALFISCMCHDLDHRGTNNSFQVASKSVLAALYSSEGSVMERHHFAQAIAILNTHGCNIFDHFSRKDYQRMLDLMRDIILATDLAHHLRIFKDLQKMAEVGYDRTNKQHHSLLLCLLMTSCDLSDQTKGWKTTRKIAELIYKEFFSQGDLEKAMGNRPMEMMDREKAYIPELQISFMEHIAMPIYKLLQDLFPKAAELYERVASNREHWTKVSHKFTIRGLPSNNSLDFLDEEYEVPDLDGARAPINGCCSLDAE
Method: The cGMP-stimulable PDE (PDE 2), the cGMP-inhibitable PDE (PDE 3) and the cAMP-specific PDE (PDE 4) were isolated either from porcine or bovine heart myocardium. The Ca^2+ calmodulin-stimulable PDE 1 was isolated from porcine aorta, porcine brain or preferably from bovine aorta. The cGMP-specific PDE (PDE 5) was preferably obtained from porcine small intestine, porcine aorta, human blood platelets and preferably from bovine aorta. Purification was carried out by anion exchange chromatography on mono Q^R Pharmacia essentially according to the method of Hoey, M; Houslay, M. D., Biochem. Pharmacol. 1990, 40, 193-202 and Lugman et al. Biochem. Pharmacol. 1986, 35, 1743-1751.
The enzyme activity was determined in a test batch of 100 μl in 20 mM tris/HCl buffer pH 7.5 which contains 5 mM MgCl2, 0.1 mg/ml of bovine serum albumin and either 800 Bq of [^3H]-cAMP or [^3H]-cGMP. […] 100 μl of the reaction batch are separated on the HPLC and the cleavage products are determined quantitatively online using a flow-through scintillation counter. The substance concentration at which the reaction rate is decreased by 50% is measured. […]
Test substances were dissolved in 100% DMSO (10 mM), and this solution was further diluted with H2O (highest final concentration in the test: 10 μM). […] After the beads had settled (about 15 min), the plate was measured in a beta counter.

[1] = system: intracellular neuronal cGMP concentration in primary rat brain cell cultures; assay: Measurement of the increase in the intracellular neuronal cGMP concentration in cell cultures (SNP prestimulation); format: cell-based; conditions: parallel incubation of neurons with SNP, 37° C., 20 min
Excerpt: PDE 2 inhibitors increase the intracellular neuronal cGMP concentration after prestimulation of the guanylate cyclase using 10^−4 M sodium nitroprusside (SNP) in primary rat brain cell cultures.
Rat embryos were decapitated and the heads were transferred to preparation dishes. The scalp and cranium were removed, and the exposed brains were transferred to a further Petri dish. With the aid of a binocular microscope and two pairs of forceps, hippocampi were isolated from the cortex and cooled to 4° C. using ice. This preparation and the isolation of the hippocampal neurons were then carried out according to a standard protocol using the papain dissociation system (Worthington Biochemical Corporation, Lakewood, N.J. 08701, USA) (Huettner et al. J. Neurosci. 1986, 6, 3044-3060). The mechanically isolated neurons were cultured under standard conditions (37° C., 5% CO2) to 150,000 cells/hole in 200 μl of neurobasal medium/hole (neurobasal; Gibco/BRL; 2 mM L-glutamine; in the presence of penicillin/streptomycin) for 7 days in 96-hole plates (pretreated with poly-D-lysine 100 μg/ml for 20 min). After 7 days, the medium was removed and the cells were washed with HBS buffer (Gibco/BRL). […] The cells were then lysed in 200 μl of lysis buffer (cGMP kit code RPN 226; from Amersham Pharmacia Biotech.) and the cGMP concentration was measured according to the instructions of the manufacturer. […]

Which “effect in the object recognition test” value (rats) does the source give for COc1ccc(Cc2nn3c([C@@H](CCCc4ccccc4)[C@@H](C)O)nc(C)c3c(=O)[nH]2)cc1OC (single isomer, unassigned) [Example 16] here?
The value was “shows an effect”.

With COc1ccc(Cc2nn3c(C(CCCc4ccccc4)C(C)=O)nc(C)c3c(=O)[nH]2)cc1 (stereo not shown) [Example 2, 7-(1-Acetyl-4-phenylbutyl)-2-(4-methoxybenzyl)-5-methylimidazo[5,1-f][1,2,4]triazin-4(3H)-one] as the compound, how does the IC50 (PDE 2) read?
Its IC50 is 10 nM.

What about the melting point of the same compound?
Its melting point is 138 °C.

For COc1ccc(Cc2nn3c(C(CCCc4ccccc4)C(C)O)nc(C)c3c(=O)[nH]2)cc1OC (stereo not shown) [Example 15, 2-(3,4-Dimethoxybenzyl)-7-[1-(1-hydroxyethyl)-4-phenylbutyl]-5-methylimidazo-[5,1-f][1,2,4]triazin-4(3H)-one], which “concentration from which a marked increase in the intracellular cGMP level was seen” value [1] is on record?
Its value is ≥ 100 nM.
